Data reported in patent US6423541B1, “Process for in vitro selection of high methol producing genotypes” (Council of Scientific&Industrial Reaearch, priority 2000, dated 2002).

Legend:
[1] = system: regenerated shoots of Mentha arvensis varieties; experiment: whole plant or invertebrate; format: cell-based; conditions: 168 h, read-out: mortality of shoots
Text: The plant varieties analysed were Himalaya, Shivalik, Gomti, MAS-1, Kosi, Kalka of Mentha arvensis L. (2n=96). The suckers of these plant varieties were obtained from CIMAP's national gene bank for medicinal and aromatic plants for planting. The explant materials were collected from the field grown plants and surface sterilized by washing sequentially with 2% detergent, distilled water containing a few drops of Savlon (Johnson and Johnson, India), 0.1% acidified mercuric chloride and autoclaved distilled water before inoculation. About 1 cm long internodal pieces were inoculated in the MS medium (Murasighe and Skoog, 1962) containing vitamins, 100 mg l^−1 myo-inositol 3% wv^−1 sucrose, 1.5% wv^−1 agar (Difco), 0.5 .μg ml^−1 of an auxin, (NAA, 1-napthalene acetic acid) and 5 μg ml^−1 of a cytokinin (BAP, benzyl aminopurine) (Shasany et al, 1998). The cultures were grown at 25±2° C. and 400 to 600 lux light intensity with 16 h photoperiod. The regenerated shoots were separated 12 weeks after the explant inoculation for rooting and/or testing menthol tolerance.
The regenerated shoots (3-4 cm long, containing the apical bud and 2-3 nodes) separated after 12 weeks, were inoculated into MS basal medium with or without menthol (0 to 100 μg ml^−1). […] The wilting response and lethality in explants was recorded every 24 hours over a period of one week.

[2] = system: callus mediated regenerants of Mentha arvensis cv. Himalaya; experiment: Survival of callus mediated regenerants from internodal explants at different concentrations of menthol; format: cell-based; conditions: for Survival after 24 hours Number / Survival after 7 days Number: 20 shoots tested per replication
Text: The Applicants selected the improved plant variety cv. Himalaya (U.S. Pat. PP 10,935: Kumar et al 1999) of Mentha arvensis L. as the base material for further improvement and selection. This variety is a hybrid between variety Gomti and Kalka and bears the high proliferating habit of Gomti and high menthol content, disease tolerant characters of Kalka. The explant material was collected from the field grown plants and surface sterilized by washing sequentially with 2% detergent, distilled water containing a few drops of Savlon (Johnson and Johnson, India), 0.1% acidified mercurie chloride and autoclaved distilled water before inoculation. About 1 cm long internode pieces were inoculated in the MS medium (Murashige and Skoog 1962) containing 0.2 μg ml^−1 concentrations of the auxin 2,4 dichlorophenoxyacetic acid (2,4-D) and 7 μg ml^−1 of the cytokinin 6-(γγ′- dimethylallyl amino) purine (2iP or 2aP) (Khanuja et al. 1998). This procedure has been highly efficient in generating variation in cultures of mints with greater frequencies. The cultures were grown at 25±2° C. and 400 to 600 lux light intensity with 16-h photoperiod. The regenerated shoots were separated 12 weeks latter the explant inoculation for rooting and/or screening.
The regenerated shoots (3-4 cm long, containing the apical bud and 2-3 nodes) separated from the 2,4D/2iP medium, were inoculated into MS basal medium containing vitamins, 100 mg l^−1 myo-inositol, 3% wv^−1 sucrose, 1.5% wv^−1 agar (Difco), with or without menthol (0 to 100 μg ml^−1, concentration stepped up by 10 μg serially in each treatment). On each kind of these media, 5 independent regenerated shoots were inoculated per flask; 4 flasks were inoculated per replication and each treatment was replicated 5 times, making the number of flasks to 20 and number of explants to 100 for each concentration of menthol. Like the earlier experiment this experiment was also conducted in the completely randomised design (CRD) fashion. Cultures were incubated and maintained at 25±2° C. and 400-600 lux light intensity with 16 hour photoperiod. The nature of initial responses in explants was recorded every 24 hours over a period of one week.

In the case of `CC1CCC(C(C)C)C(O)C1` (centres unmarked) [menthol], the mortality at 80 ppm [1] is reported as 100%, the shoot survival ([2]; at and above 80 μg ml^−1 menthol, after 7th day) is reported as “No shoots were able to survive” and the “Survival after 24 hours %” value ([2]; menthol 10 μg ml^−1) is reported as 100%. The “Survival after 7 days %” value ([2]; menthol 10 μg ml^−1) was 100%, the “Survival after 24 hours Number” value ([2]; menthol 10 μg ml^−1) was 20.0 ± 0.00 and the “Survival after 7 days Number” value ([2]; menthol 10 μg ml^−1) was 20.0 ± 0.00. For the same compound, the “Survival after 24 hours %” value ([2]; menthol 20 μg ml^−1) was 100%, the “Survival after 7 days %” value ([2]; menthol 20 μg ml^−1) was 100% and the “Survival after 24 hours Number” value ([2]; menthol 20 μg ml^−1) was 20.0 ± 0.00. For the same compound, the “Survival after 7 days Number” value ([2]; menthol 20 μg ml^−1) was 20.0 ± 0.00, the “Survival after 24 hours %” value ([2]; menthol 30 μg ml^−1) was 100% and the “Survival after 7 days %” value ([2]; menthol 30 μg ml^−1) was 100%. For the same compound, the “Survival after 24 hours Number” value ([2]; menthol 30 μg ml^−1) was 20.0 ± 0.00, the “Survival after 7 days Number” value ([2]; menthol 30 μg ml^−1) was 20.0 ± 0.00 and the “Survival after 24 hours %” value ([2]; menthol 40 μg ml^−1) was 100%. For the same compound, the “Survival after 7 days %” value ([2]; menthol 40 μg ml^−1) was 88%, the “Survival after 24 hours Number” value ([2]; menthol 40 μg ml^−1) was 20.0 ± 0.00 and the “Survival after 7 days Number” value ([2]; menthol 40 μg ml^−1) was 17.6 ± 0.66. For the same compound, the “Survival after 24 hours %” value ([2]; menthol 50 μg ml^−1) was 85%, the “Survival after 7 days %” value ([2]; menthol 50 μg ml^−1) was 45% and the “Survival after 24 hours Number” value ([2]; menthol 50 μg ml^−1) was 17.0 ± 0.91. For the same compound, the “Survival after 7 days Number” value ([2]; menthol 50 μg ml^−1) was 9.0 ± 0.41, the “Survival after 24 hours %” value ([2]; menthol 60 μg ml^−1) was 70% and the “Survival after 7 days %” value ([2]; menthol 60 μg ml^−1) was 10%. The “Survival after 24 hours Number” value ([2]; menthol 60 μg ml^−1) was 14.0 ± 0.58, the “Survival after 7 days Number” value ([2]; menthol 60 μg ml^−1) was 2.0 ± 0.41 and the “Survival after 24 hours %” value ([2]; menthol 70 μg ml^−1) was 45%. For the same compound, the “Survival after 7 days %” value ([2]; menthol 70 μg ml^−1) was 1%, the “Survival after 24 hours Number” value ([2]; menthol 70 μg ml^−1) was 9.0 ± 0.91 and the “Survival after 7 days Number” value ([2]; menthol 70 μg ml^−1) was 0.2 ± 0.26. For the same compound, the shoot survival ([2]; menthol 70 μg ml^−1, within 24 hours of inoculation) was “about 45%”, the death of shoots ([2]; menthol 70 μg ml^−1, within 7 days after inoculation) was ~99% and the “Survival after 24 hours %” value ([2]; menthol 80 μg ml^−1) was 20%. The “Survival after 7 days %” value ([2]; menthol 80 μg ml^−1) was 0%, the “Survival after 24 hours Number” value ([2]; menthol 80 μg ml^−1) was 4.0 ± 0.58 and the “Survival after 7 days Number” value ([2]; menthol 80 μg ml^−1) was 0.0 ± 0.00. The “Survival after 24 hours %” value ([2]; menthol 90 μg ml^−1) was 10%, the “Survival after 7 days %” value ([2]; menthol 90 μg ml^−1) was 0% and the “Survival after 24 hours Number” value ([2]; menthol 90 μg ml^−1) was 2.0 ± 0.40. The “Survival after 7 days Number” value ([2]; menthol 90 μg ml^−1) was 0.0 ± 0.00, the “Survival after 24 hours %” value ([2]; menthol 100 μg ml^−1) was 0% and the “Survival after 7 days %” value ([2]; menthol 100 μg ml^−1) was 0%. For the same compound, the “Survival after 24 hours Number” value ([2]; menthol 100 μg ml^−1) was 0.0 ± 0.00 and the “Survival after 7 days Number” value ([2]; menthol 100 μg ml^−1) was 0.0 ± 0.00.
